Reference: ChEMBL document CHEMBL3785084, “Rational modification of the lead molecule: Enhancement in the anticancer and dihydrofolate reductase inhibitory activity” (Bioorg Med Chem Lett, 2016)

Tests used:
CCRF-CEM = test: Cytotoxicity against human CCRF-CEM cells assessed as cell growth at 10^-5 M after 48 hrs by sulforhodamine B assay; assay type: functional; conditions: read-out: Activity
[1] = Cytotoxicity against human RPMI8226 cells assessed as cell growth at 10^-5 M after 48 hrs by sulforhodamine B assay; assay type: functional; conditions: RPMI-8226, 48 h, read-out: Activity
[2] = Cytotoxicity against human HOP92 cells assessed as cell growth at 10^-5 M after 48 hrs by sulforhodamine B assay; assay type: functional; conditions: HOP-92, 48 h, read-out: Activity
NCI-H23 = test: Cytotoxicity against human NCI-H23 cells assessed as cell growth at 10^-5 M after 48 hrs by sulforhodamine B assay; assay type: functional; conditions: NCI-H23, 48 h, read-out: Activity
NCI-H522 = test: Cytotoxicity against human NCI-H522 cells assessed as cell growth at 10^-5 M after 48 hrs by sulforhodamine B assay; assay type: functional; conditions: NCI-H522, 48 h, read-out: Activity
[3] = Cytotoxicity against human HCT116 cells assessed as cell growth at 10^-5 M after 48 hrs by sulforhodamine B assay; assay type: functional; conditions: HCT-116, 48 h, read-out: Activity
KM12 [4] = test: Cytotoxicity against human KM12 cells assessed as cell growth at 10^-5 M after 48 hrs by sulforhodamine B assay; assay type: functional; conditions: KM12, 48 h, read-out: Activity
[5] = Cytotoxicity against human SNB75 cells assessed as cell growth at 10^-5 M after 48 hrs by sulforhodamine B assay; assay type: functional; conditions: SNB-75, 48 h, read-out: Activity
[6] = Cytotoxicity against human LOXIMVI cells assessed as cell growth at 10^-5 M after 48 hrs by sulforhodamine B assay; assay type: functional; conditions: LOX IMVI, read-out: Activity
Malme-3M = test: Cytotoxicity against human MALME-3M cells assessed as cell growth at 10^-5 M after 48 hrs by sulforhodamine B assay; assay type: functional; conditions: read-out: Activity
SK-MEL-5 = test: Cytotoxicity against human SK-MEL-5 cells assessed as cell growth at 10^-5 M after 48 hrs by sulforhodamine B assay; assay type: functional; conditions: SK-MEL-5, 48 h, read-out: Activity
[7] = Cytotoxicity against human UACC62 cells assessed as cell growth at 10^-5 M after 48 hrs by sulforhodamine B assay; assay type: functional; conditions: UACC-62, 48 h, read-out: Activity
[8] = Cytotoxicity against human OVCAR3 cells assessed as cell growth at 10^-5 M after 48 hrs by sulforhodamine B assay; assay type: functional; conditions: OVCAR-3, 48 h, read-out: Activity
[9] = Cytotoxicity against human OVCAR4 cells assessed as cell growth at 10^-5 M after 48 hrs by sulforhodamine B assay; assay type: functional; conditions: OVCAR-4, 48 h, read-out: Activity
[10] = Cytotoxicity against human OVCAR8 cells assessed as cell growth at 10^-5 M after 48 hrs by sulforhodamine B assay; assay type: functional; conditions: OVCAR-8, 48 h, read-out: Activity
ACHN [11] = test: Cytotoxicity against human ACHN cells assessed as cell growth at 10^-5 M after 48 hrs by sulforhodamine B assay; assay type: functional; conditions: read-out: Activity
SN12C = test: Cytotoxicity against human SN12C cells assessed as cell growth at 10^-5 M after 48 hrs by sulforhodamine B assay; assay type: functional; conditions: read-out: Activity
[12] = Cytotoxicity against human TK10 cells assessed as cell growth at 10^-5 M after 48 hrs by sulforhodamine B assay; assay type: functional; conditions: TK-10, 48 h, read-out: Activity
MCF7 = test: Cytotoxicity against human MCF7 cells assessed as cell growth at 10^-5 M after 48 hrs by sulforhodamine B assay; assay type: functional; conditions: MCF7, 48 h, read-out: Activity
[13] = Cytotoxicity against human Hs 578T cells assessed as cell growth at 10^-5 M after 48 hrs by sulforhodamine B assay; assay type: functional; conditions: read-out: Activity
T47D [14] = test: Cytotoxicity against human T47D cells assessed as cell growth at 10^-5 M after 48 hrs by sulforhodamine B assay; assay type: functional; conditions: read-out: Activity
MDA-MB-468 [15] = test: Cytotoxicity against human MDA-MB-468 cells assessed as cell growth at 10^-5 M after 48 hrs by sulforhodamine B assay; assay type: functional; conditions: MDA-MB-468, 48 h, read-out: Activity
[16] = Cytotoxicity against human NCI-ADR-RES cells after 48 hrs by sulforhodamine B assay; assay type: functional
[17] = Cytotoxicity against human Hs 578T cells after 48 hrs by sulforhodamine B assay; assay type: functional
SR = test: Cytotoxicity against human SR cells after 48 hrs by sulforhodamine B assay; assay type: functional
cells [18] = conditions: Homo sapiens, UACC-62, 48 h
Description: Cytotoxicity against human UACC62 cells after 48 hrs by sulforhodamine B assay

cells [19] = conditions: Homo sapiens, SK-OV-3, 48 h
Description: Cytotoxicity against human SKOV3 cells after 48 hrs by sulforhodamine B assay

ACHN [20] = test: cells; conditions: Homo sapiens, 48 h
Description: Cytotoxicity against human ACHN cells after 48 hrs by sulforhodamine B assay

cells [21] = conditions: Homo sapiens, TK-10, 48 h
Description: Cytotoxicity against human TK10 cells after 48 hrs by sulforhodamine B assay

T47D [22] = test: cells; conditions: Homo sapiens, 48 h
Description: Cytotoxicity against human T47D cells after 48 hrs by sulforhodamine B assay

MDA-MB-468 [23] = test: cells; conditions: Homo sapiens, MDA-MB-468, 48 h
Description: Cytotoxicity against human MDA-MB-468 cells after 48 hrs by sulforhodamine B assay

K562 = test: cells; conditions: Homo sapiens, K562, 48 h
Description: Cytotoxicity against human K562 cells after 48 hrs by sulforhodamine B assay

cells [24] = conditions: Homo sapiens, MOLT-4, 48 h
Description: Cytotoxicity against human MOLT4 cells after 48 hrs by sulforhodamine B assay

NCI-H226 = test: cells; conditions: Homo sapiens, NCI-H226, 48 h
Description: Cytotoxicity against human NCI-H226 cells after 48 hrs by sulforhodamine B assay

NCI-H460 = test: cells; conditions: Homo sapiens, NCI-H460, 48 h
Description: Cytotoxicity against human NCI-H460 cells after 48 hrs by sulforhodamine B assay

KM12 [25] = test: cells; conditions: Homo sapiens, KM12, 48 h
Description: Cytotoxicity against human KM12 cells after 48 hrs by sulforhodamine B assay

cells [26] = conditions: Homo sapiens, SNB-75, 48 h
Description: Cytotoxicity against human SNB75 cells after 48 hrs by sulforhodamine B assay

SK-MEL-28 = test: cells; conditions: Homo sapiens, SK-MEL-28, 48 h
Description: Cytotoxicity against human SK-MEL-28 cells after 48 hrs by sulforhodamine B assay

[27] = read-out: LC50 (the source's name)

## O=C1NC(=O)C(=Cc2cn(CC(O)Cn3cc(C=C4C(=O)NC(=O)NC4=O)c4ccccc43)c3ccccc23)C(=O)N1
CCRF-CEM
  growth at 10 µM: 105%
[1]
  growth at 10 µM: 98.5%
[2]
  growth at 10 µM: 101%
NCI-H23
  growth at 10 µM: 94.7%
NCI-H522
  growth at 10 µM: 97.1%
[3]
  growth at 10 µM: 79.2%
KM12 [4]
  growth at 10 µM: 94%
[5]
  growth at 10 µM: 90.2%
[6]
  growth at 10 µM: 98%
Malme-3M
  growth at 10 µM: 97.7%
SK-MEL-5
  growth at 10 µM: 101%
[7]
  growth at 10 µM: 106%
[8]
  growth at 10 µM: 109%
[9]
  growth at 10 µM: 100%
[10]
  growth at 10 µM: 117%
ACHN [11]
  growth at 10 µM: 105%
SN12C
  growth at 10 µM: 107%
[12]
  growth at 10 µM: 105%
MCF7
  growth at 10 µM: 91.1%
[13]
  growth at 10 µM: 108%
T47D [14]
  growth at 10 µM: 91.8%
MDA-MB-468 [15]
  growth at 10 µM: 96.7%

## CN1C(=O)C(=Cc2cn(CC(O)Cn3cc(C=C4C(=O)N(C)C(=O)N(C)C4=O)c4ccccc43)c3ccccc23)C(=O)N(C)C1=O
CCRF-CEM
  growth at 10 µM: 98.3%
[1]
  growth at 10 µM: 86.2%
[2]
  growth at 10 µM: 80.4%
NCI-H23
  growth at 10 µM: 87.9%
NCI-H522
  growth at 10 µM: 108%
[3]
  growth at 10 µM: 80.3%
KM12 [4]
  growth at 10 µM: 94.3%
[5]
  growth at 10 µM: 72.3%
[6]
  growth at 10 µM: 97%
Malme-3M
  growth at 10 µM: 87.7%
SK-MEL-5
  growth at 10 µM: 97%
[7]
  growth at 10 µM: 88.3%
[8]
  growth at 10 µM: 95.2%
[9]
  growth at 10 µM: 97.2%
[10]
  growth at 10 µM: 114%
ACHN [11]
  growth at 10 µM: 93.7%
SN12C
  growth at 10 µM: 99.1%
[12]
  growth at 10 µM: 117%
MCF7
  growth at 10 µM: 91.8%
[13]
  growth at 10 µM: 97.3%
T47D [14]
  growth at 10 µM: 91.8%
MDA-MB-468 [15]
  growth at 10 µM: 19.4%

## O=C1Nc2ccccc2/C1=C/c1cn(CC(O)Cn2cc(/C=C3\C(=O)Nc4ccccc43)c3ccccc32)c2ccccc12 (stereo unspecified)
CCRF-CEM
  growth at 10 µM: -30.6%
[16]
  GI50: 12 µM
  TGI: 54.5 µM
[16]; [27]
  CC50: > 100 µM
[17]
  GI50: 2.4 µM
  TGI: 7.8 µM
[17]; [27]
  CC50: > 100 µM
[1]
  growth at 10 µM: -41.7%
[2]
  growth at 10 µM: -73.9%
NCI-H23
  growth at 10 µM: -67.3%
NCI-H522
  growth at 10 µM: -17.4%
[3]
  growth at 10 µM: -64.2%
KM12 [4]
  growth at 10 µM: -80.9%
[5]
  growth at 10 µM: -95.9%
[6]
  growth at 10 µM: -84.5%
Malme-3M
  growth at 10 µM: -76%
SK-MEL-5
  growth at 10 µM: -80.2%
[7]
  growth at 10 µM: -75.2%
[8]
  growth at 10 µM: -85.1%
[9]
  growth at 10 µM: -51.7%
[10]
  growth at 10 µM: 1.35%
ACHN [11]
  growth at 10 µM: -68.4%
SN12C
  growth at 10 µM: -53.6%
[12]
  growth at 10 µM: -15.1%
MCF7
  growth at 10 µM: -67.5%
[13]
  growth at 10 µM: -22.2%
T47D [14]
  growth at 10 µM: -46.1%
MDA-MB-468 [15]
  growth at 10 µM: -84.8%
SR
  GI50: 0.39 µM
SR; [27]
  CC50: > 100 µM
Cells [18]
  GI50: 1.6 µM
  TGI: 3.1 µM
Cells [18]; read-out: LC50
  CC50: 6.1 µM
Cells [19]
  GI50: 1.6 µM
  TGI: 3.6 µM
Cells [19]; read-out: LC50
  CC50: 8.1 µM
ACHN [20]
  GI50: 1.6 µM
  TGI: 3.9 µM
ACHN [20]; read-out: LC50
  CC50: 9.3 µM
Cells [21]
  GI50: 2.7 µM
  TGI: 5.4 µM
Cells [21]; read-out: LC50
  CC50: 14.4 µM
T47D [22]
  GI50: 1.6 µM
  TGI: 3.8 µM
MDA-MB-468 [23]
  GI50: 2.03 µM
  TGI: 3.7 µM
MDA-MB-468 [23]; read-out: LC50
  CC50: 6.9 µM
K562
  GI50: 1.2 µM
  TGI: 3.5 µM
K562; read-out: LC50
  CC50: > 100 µM
Cells [24]
  GI50: 2.5 µM
  TGI: 7.4 µM
Cells [24]; read-out: LC50
  CC50: > 100 µM
NCI-H226
  GI50: 1.6 µM
  TGI: 3.5 µM
NCI-H226; read-out: LC50
  CC50: 7.5 µM
NCI-H460
  GI50: 0.48 µM
  TGI: 1.8 µM
NCI-H460; read-out: LC50
  CC50: 6.6 µM
KM12 [25]
  GI50: 1.4 µM
  TGI: 3.3 µM
Cells [26]
  GI50: 1.3 µM
  TGI: 2.9 µM
Cells [26]; read-out: LC50
  CC50: 6.4 µM
SK-MEL-28
  GI50: 1.7 µM
  TGI: 3.5 µM
SK-MEL-28; read-out: LC50
  CC50: 6.9 µM
